Laboratory results from PubChem BioAssay (NCI).
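Briefly, cells in 96-well plates were exposed to five compound concentrations for 48 h, and endpoints were estimated by linear interpolation. GI50 is the concentration that inhibits growth by half. TGI: total growth inhibition.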

Assays:
Test in all cases: inhibition of tumour cell growth, NCI panel, 48 h
[1] = test system: 786-0 renal
[2] = test system: A498 renal
[3] = test system: A549 NSCLC
[4] = test system: ACHN renal
[5] = test system: BT-549 breast
[6] = test system: CAKI-1 renal
[7] = test system: CCRF-CEM leukemia
[8] = test system: COLO 205 colon
[9] = test system: DU-145 prostate
[10] = test system: EKVX NSCLC
[11] = test system: HCC-2998 colon
[12] = test system: HCT-116 colon
[13] = test system: HCT-15 colon
[14] = test system: HL-60(TB) leukemia
[15] = test system: HOP-62 NSCLC
[16] = test system: HOP-92 NSCLC
[17] = test system: HS 578T breast
[18] = test system: HT29 colon
[19] = test system: IGROV1 ovarian
[20] = test system: K-562 leukemia
[21] = test system: KM12 colon
[22] = test system: LOX IMVI melanoma
[23] = test system: M14 melanoma
[24] = test system: MALME-3M melanoma
[25] = test system: MCF7 breast
[26] = test system: MDA-MB-231 breast
[27] = test system: MDA-MB-435
[28] = test system: MOLT-4 leukemia
[29] = test system: NCI-H226 lung
[30] = test system: NCI-H23 lung
[31] = test system: NCI-H460 lung
[32] = test system: NCI-H522 lung
[33] = test system: NCI/ADR-RES ovarian
[34] = test system: OVCAR-3 ovarian
[35] = test system: OVCAR-4 ovarian
[36] = test system: OVCAR-5 ovarian
[37] = test system: OVCAR-8 ovarian
[38] = test system: PC-3 prostate
[39] = test system: RPMI-8226 leukemia
[40] = test system: RXF 393 renal
[41] = test system: SF-268 CNS
[42] = test system: SF-295 CNS
[43] = test system: SF-539 CNS
[44] = test system: SK-MEL-28 melanoma
[45] = test system: SK-MEL-5 melanoma
[46] = test system: SK-OV-3 ovarian
[47] = test system: SN12C renal
[48] = test system: SNB-19 CNS
[49] = test system: SNB-75 CNS
[50] = test system: SW-620 colon
[51] = test system: T-47D breast
[52] = test system: TK-10 renal
[53] = test system: U251 CNS
[54] = test system: UACC-257 melanoma
[55] = test system: UACC-62 melanoma
[56] = test system: UO-31 renal

Work on `CNC(=O)c1cncc(/C=C/c2c(Cl)cccc2Cl)c1` yielded a GI50 [1] of over 25 µM, a TGI [1] of over 25 µM and a GI50 [2] of 7.44 µM. For the same compound, the TGI [2] was over 25 µM, the GI50 [3] was over 25 µM and the TGI [3] was over 25 µM. The GI50 [4] was over 23.2 µM, the TGI [4] was over 25 µM and the GI50 [5] was over 25 µM. It also gave a TGI [5] of over 25 µM, a GI50 [6] of 13.6 µM and a TGI [6] of over 25 µM. It also gave a GI50 [7] of over 25 µM, a TGI [7] of over 25 µM and a GI50 [8] of over 25 µM. For the same compound, the TGI [8] was over 25 µM, the GI50 [9] was over 25 µM and the TGI [9] was over 25 µM. The GI50 [10] was over 25 µM, the TGI [10] was over 25 µM and the GI50 [11] was over 25 µM. For the same compound, the TGI [11] was over 25 µM, the GI50 [12] was over 25 µM and the TGI [12] was over 25 µM. For the same compound, the GI50 [13] was over 22.4 µM, the TGI [13] was over 25 µM and the GI50 [14] was over 25 µM. It also gave a TGI [14] of over 25 µM, a GI50 [15] of over 25 µM and a TGI [15] of over 25 µM. The GI50 [16] was 2.31 µM, the TGI [16] was over 25 µM and the GI50 [17] was 7.17 µM. For the same compound, the TGI [17] was over 21.6 µM, the GI50 [18] was 15.1 µM and the TGI [18] was over 25 µM. The GI50 [19] was over 17.9 µM, the TGI [19] was over 25 µM and the GI50 [20] was 8.14 µM. It also gave a TGI [20] of over 25 µM, a GI50 [21] of over 22.4 µM and a TGI [21] of over 25 µM. For the same compound, the GI50 [22] was over 19.6 µM, the TGI [22] was over 25 µM and the GI50 [23] was over 23.4 µM. The TGI [23] was over 25 µM, the GI50 [24] was 12.9 µM and the TGI [24] was over 25 µM. For the same compound, the GI50 [25] was over 25 µM, the TGI [25] was over 25 µM and the GI50 [26] was over 15.8 µM. For the same compound, the TGI [26] was over 25 µM, the GI50 [27] was 6.88 µM and the TGI [27] was over 25 µM. The GI50 [28] was over 21.9 µM, the TGI [28] was over 25 µM and the GI50 [29] was over 24.1 µM. The TGI [29] was over 25 µM, the GI50 [30] was over 25 µM and the TGI [30] was over 25 µM. It also gave a GI50 [31] of over 25 µM, a TGI [31] of over 25 µM and a GI50 [32] of 8.38 µM. It also gave a TGI [32] of over 25 µM, a GI50 [33] of over 21.2 µM and a TGI [33] of over 25 µM. The GI50 [34] was 20.9 µM, the TGI [34] was over 25 µM and the GI50 [35] was 21.9 µM. The TGI [35] was over 25 µM, the GI50 [36] was over 25 µM and the TGI [36] was over 25 µM. It also gave a GI50 [37] of over 25 µM, a TGI [37] of over 25 µM and a GI50 [38] of over 21.6 µM. It also gave a TGI [38] of over 25 µM, a GI50 [39] of over 25 µM and a TGI [39] of over 25 µM. For the same compound, the GI50 [40] was 8.89 µM, the TGI [40] was over 25 µM and the GI50 [41] was 22.7 µM. The TGI [41] was over 25 µM, the GI50 [42] was over 12.8 µM and the TGI [42] was over 25 µM. For the same compound, the GI50 [43] was 9.43 µM, the TGI [43] was over 25 µM and the GI50 [44] was over 25 µM. The TGI [44] was over 25 µM, the GI50 [45] was 14.5 µM and the TGI [45] was over 25 µM. The GI50 [46] was over 25 µM, the TGI [46] was over 25 µM and the GI50 [47] was over 21 µM. For the same compound, the TGI [47] was over 25 µM, the GI50 [48] was over 22.4 µM and the TGI [48] was over 25 µM. The GI50 [49] was 2.89 µM, the TGI [49] was over 16.1 µM and the GI50 [50] was over 25 µM. It also gave a TGI [50] of over 25 µM, a GI50 [51] of over 18.1 µM and a TGI [51] of over 25 µM. It also gave a GI50 [52] of 12.9 µM, a TGI [52] of over 25 µM and a GI50 [53] of over 25 µM. For the same compound, the TGI [53] was over 25 µM, the GI50 [54] was 24.7 µM and the TGI [54] was over 25 µM. The GI50 [55] was over 19.8 µM, the TGI [55] was over 25 µM and the GI50 [56] was 6.69 µM. The TGI [56] was over 25 µM.
